Test results: patent US20040121941A1, “Novel inhibitors of prenylated pyrophosphate consuming enzymes” (priority 1999, published 2004)

Molecular target: T1, protein:geranylgeranyl transferase-1 (PGGT-1) (Bos taurus, UniProt Q5EAD5)
T1 construct: A crude PGGT-1 preparation was isolated from bovine brain; from tissue; host or cells: bovine brain
Experiment: Protein:geranylgeranyl transferase-1 (PGGT-1) activity assay, [3H]-GGPP and sepharose-coupled peptide pepCsep
Assay type: biochemical
Details: PGGT activity in % of control (without analogue), bovine brain enzyme, Table I
Procedure: PFT activity was determined using a C-terminal peptide of pre-p21^N-ras coupled to sepharose beads as substrate (pepAsep) as described previously (Cohen et al. Biochem. Pharmacol. 57 (1999), 365-373). The experimental conditions (25 μL reaction mixture) were as follows: 80 pmol/25 μL sepharose-coupled peptide, 0.7 μM of [^3H]-FPP (American Radiolabeled Chemicals Inc.; specific radioactivity 15 Ci/mmol) and 13 μL of rat brain enzyme preparation. Incubation was performed at 37° C. for 30 min. For the determination of IC50 values of the FPP analogues, the assay was performed three times in the presence of different concentrations of compound 5 (example 1) in duplicate. Determination of PGGT-1 activity was performed in a similar manner as described for PFT activity and has also been described previously (Cohen et al. Biochem. Pharmacol. 57 (1999), 365-373). […] The experimental conditions were as follows: 25 μL incubation mixture contained 2.5 μL (1 nmol) pepCsep, 1 μM [^3H]-GGPP (American Radiolabeled Chemicals Inc.; specific radioactivity 15 Ci/mmol), 3 μL of bovine brain enzyme preparation, 50 μM ZnCl2, 0.5 mM MgCl2, 1 mM dithiothreitol, 0.004% Triton X-100, 50 mM Tris-HCl (pH 7.4). […]
The radioactivity bound to the sepharose was strongly dependent on the presence of the cysteine residue in pepCsep and the reaction was linear up to 40 min and up to 5 μL of the enzyme preparation. […]

Substance: [Bis(benzyloxycarbonyl)lysyl]-[ε-aminocaproyl]-[β-(nitrophenylaminocarbonyl)-β-alanyl]-[phosphoserine] [compound 378]
- relative activity at 10 μM (compound at 10 μM): 36 ± 9%
- relative activity at 100 μM (compound at 100 μM): 28 ± 5%
